{"source": "patent US8420341B2", "about": "“Methods for measuring ADP” (Genewiz Inc., Suzhou, priority 2007, dated 2013)", "molecular_target": "PKA (Homo sapiens, UniProt P17612)", "test": "PKA kinase reaction, ADP luminescent enzyme-coupled assay", "assay_type": "biochemical", "conditions": "5 μM ATP, 30 μM Kemptide, 2.5 nM PKA, 90 minutes at room temperature; FIGS. 4A-4B", "description": "Assay Procedures 1. Add 10 μl reagent A to 30 μl kinase reaction mixtures and incubate at RT. 2. Add 10 μl reagent B and read luminescence immediately.\nAt the end of incubation, 10 μl Reagent B were added and luminescence was measured. Each data point represents the average of 3 repeats.", "data": [{"smiles": "O=S(=O)(NCCNC/C=C/c1ccc(Br)cc1)c1cccc2cnccc12", "note": "[H89]", "values": [{"measurement": "luminescence signals (PKA activity) with increasing amounts of inhibitor", "value": "decreased luminescence signals in a dose dependent manner"}]}]}
